Like-named read-outs stand apart in the source and are kept apart here.
How the values were obtained:
[1] = test system: SJSA-1 cells (p53 wild-type, MDM2 amplified osteosarcoma); experiment: Protocol A: SJSA-1 growth inhibition (sulphorhodamine B)
Description: Protocol A: SJSA-1 and SN40R2 Assays
(§1) The MDM2 amplified cell lines tested were an isogenic matched pair of p53 wild-type and mutated osteosarcoma (SJSA-1 and SN40R2, respectively). […] Following incubation with the SRB dye at room temperature for 30 min, the plates were washed with 1% acetic acid and left to dry. […] The GI50 was calculated by non-linear regression analysis of the data using Prism v4.0 statistical software.

MDM2-p53 interaction = MDM2-p53 interaction (Homo sapiens (Human), UniProt Q00987); conditions: for inhibition at 0.001 µM: read-out: MDM2 % inhibition @0.0010
[2] = test system: SN40R2 cells (p53 mutated, MDM2 amplified osteosarcoma); experiment: Protocol A: SN40R2 growth inhibition (sulphorhodamine B); conditions: for inhibition at 50 µM: read-out: SN40R2 % inhibition at 50
Description: Protocol A: SJSA-1 and SN40R2 Assays
as §1

SJSA-1 cells = experiment: Protocol B: SJSA-1 CellTiter-Glo luminescent cell viability assay
SN40R2 cells = experiment: Protocol B: SN40R2 CellTiter-Glo luminescent cell viability assay; conditions: read-out: SN40R2 % inhibition at 10, Protocol B, SN40R2, at 10 μM
[3] = read-out: SJSA-1 IC50 (μM) (Protocol A), SJSA-1, Protocol A
[4] = Homo sapiens, SJSA-1, read-out: SJSA-1 IC50 (μM) (Protocol A), SJSA-1, Protocol A
[5] = read-out: SN40R2 IC50 (μM) (Protocol A)
[6] = read-out: SJSA1 IC50, Protocol B, SJSA-1
[7] = Homo sapiens, SJSA-1, read-out: SJSA-1 IC50 (μM), Protocol A, SJSA-1

Chain of MDM2-p53 interaction (Q00987 whole entry): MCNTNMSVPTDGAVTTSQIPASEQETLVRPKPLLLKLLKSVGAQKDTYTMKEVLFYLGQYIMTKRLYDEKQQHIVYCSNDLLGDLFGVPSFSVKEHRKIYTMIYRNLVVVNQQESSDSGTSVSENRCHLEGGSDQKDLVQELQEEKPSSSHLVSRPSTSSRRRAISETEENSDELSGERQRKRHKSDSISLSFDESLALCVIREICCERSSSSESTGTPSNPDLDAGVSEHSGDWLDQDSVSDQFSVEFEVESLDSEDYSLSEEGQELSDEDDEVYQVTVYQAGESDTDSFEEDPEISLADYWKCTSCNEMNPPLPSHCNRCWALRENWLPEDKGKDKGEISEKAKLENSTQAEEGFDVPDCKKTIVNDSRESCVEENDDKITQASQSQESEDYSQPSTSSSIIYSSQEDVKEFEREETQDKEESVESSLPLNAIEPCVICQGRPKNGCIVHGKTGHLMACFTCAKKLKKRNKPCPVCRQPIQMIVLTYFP

## CO[C@]1(c2ccc(Cl)cc2)c2ccc(C(C)(O)CN3CCNC3=O)cc2C(=O)N1Cc1ccc(Cl)cn1 (single isomer, unassigned) [Example 157]
[1]; [3]
  IC50: 6.4 µM
MDM2-p53 interaction; at 0.30 μM
  MDM2 % at stated concentration: 39%@0.30

## CO[C@]1(c2ccc(Cl)cc2)c2ccc(C(C)(O)CN3CCNC3=O)cc2C(=O)N1Cc1ccc(Cl)cn1 (single isomer, unassigned) [Example 158]
[1]; [3]
  IC50: 1.2 µM
MDM2-p53 interaction; at 0.10 μM
  MDM2 % at stated concentration: 57%@0.10

## CO[C@]1(c2ccc(Cl)cc2)c2c(F)cc(C(C)(O)C3CCN(C(=O)CO)CC3)cc2C(=O)N1Cc1ccc(Cl)cn1 (single isomer, unassigned) [Example 296]
[1]; [4]
  IC50: 0.11 µM
[2]; [5]
  IC50: 32 µM
MDM2-p53 interaction
  MDM2 % at stated concentration: 62%@0.0010
SJSA-1 cells; Homo sapiens, SJSA-1, read-out: SJSA1 IC50 (μM) (Protocol B), SJSA-1, Protocol B
  IC50: 0.16 µM

## CO[C@]1(c2ccc(Cl)cc2)c2ccc(C(C)(O)CN3CCOCC3=O)cc2C(=O)N1Cc1ccc(Cl)cn1 (single isomer, unassigned) [Example 327]
[1]; [3]
  IC50: 9.3 µM
MDM2-p53 interaction; at 0.30 μM
  MDM2 % at stated concentration: 42%@0.30

## CO[C@]1(c2ccc(Cl)cc2)c2ccc(C(C)(O)CN3CCOCC3=O)cc2C(=O)N1Cc1ccc(Cl)cn1 (single isomer, unassigned) [Example 328]
[1]; [3]
  IC50: 2.3 µM
MDM2-p53 interaction; at 0.10 μM
  MDM2 % at stated concentration: 42%@0.10

## CO[C@]1(c2ccc(Cl)cc2)c2ccc(C(C)(O)CN3CC(=O)NC3=O)cc2C(=O)N1Cc1ccc(Cl)cn1 (single isomer, unassigned) [Example 329]
[1]; [3]
  IC50: 3 µM
MDM2-p53 interaction; at 0.30 μM
  MDM2 % at stated concentration: 61%@0.30

## CO[C@]1(c2ccc(Cl)cc2)c2ccc(C(C)(O)CN3CC(=O)NC3=O)cc2C(=O)N1Cc1ccc(Cl)cn1 (single isomer, unassigned) [Example 330]
[1]; [3]
  IC50: 7.1 µM
MDM2-p53 interaction; at 0.30 μM
  MDM2 % at stated concentration: 36%@0.30

## CC(O)(c1cc(F)c2c(c1)C(=O)N(Cc1ccc(Cl)cn1)[C@@]2(OCC1(C#N)CC1)c1ccc(Cl)cc1)C1CCN(CCO)CC1 (single isomer, unassigned) [Example 420]
[1]; [4]
  IC50: 0.49 µM
[2]; [5]
  IC50: 17 µM
MDM2-p53 interaction
  MDM2 % at stated concentration: 68%@0.0010

## CCC(O)(c1cc(F)c2c(c1)C(=O)N(Cc1ccc(C#N)nc1)[C@@]2(O[C@H]1CCOC1)c1ccc(Cl)cc1)c1cn(C)cn1 (single isomer, unassigned) [Example 431]
[2]
  inhibition at 50 µM: 39%
MDM2-p53 interaction
  inhibition at 0.001 µM: 48%
SJSA-1 cells; [6]
  IC50: 0.16 µM
SN40R2 cells
  inhibition at 10 µM: 5%

## Cn1cc(C(O)(c2cc(F)c3c(c2)C(=O)N(Cc2ccc(C#N)cn2)[C@@]3(O[C@H]2CCOC2)c2ccc(Cl)cc2)C(F)(F)F)cn1 (stereo partly drawn) [Example 428, 6-{[(1R)-1-(4-chlorophenyl)-7-fluoro-3-oxo-1-[(3S)-oxolan-3-yloxy]-5-[2,2,2-trifluoro-1-hydroxy-1-(1-methyl-1H-pyrazol-4-yl)ethyl]-2,3-dihydro-1H-isoindol-2-yl]methyl}pyridine-3-carbonitrile]
[1]; [7]
  IC50: 0.11 µM
[2]; read-out: SN40R2 IC50 (μM)
  IC50: 22 µM
MDM2-p53 interaction
  inhibition at 0.001 µM: 65%
SJSA-1 cells; [6]
  IC50: 0.19 µM

## CCC(O)(c1cc(F)c2c(c1)C(=O)N(Cc1ccc(C#N)cn1)[C@@]2(OC1CC(O)C1)c1ccc(Cl)cc1)[C@H]1CC[C@H](O)CC1 (stereo partly drawn) [Example 518, 6-{[(1R)-1-(4-chlorophenyl)-7-fluoro-5-{1-hydroxy-1-[trans-4-hydroxycyclohexyl]propyl}-3-oxo-1-[cis-3-hydroxycyclobutoxy]-2,3-dihydro-1H-isoindol-2-yl]methyl}pyridine-3-carbonitrile]
[1]; [7]
  IC50: 0.058 µM
[2]
  inhibition at 50 µM: 46%
MDM2-p53 interaction
  inhibition at 0.001 µM: 79%
SJSA-1 cells; [6]
  IC50: 0.065 µM
SN40R2 cells
  inhibition at 10 µM: 10%

## CC[C@@](O)(c1cc(F)c2c(c1)C(=O)N(Cc1ncc(C#N)cn1)[C@@]2(O[C@H]1CCOC1)c1ccc(Cl)cc1)C1CCN(C)CC1 [Example 557, 2-{[(1R)-1-(4-chlorophenyl)-7-fluoro-5-[(1S)-1-hydroxy-1-(1-methylpiperidin-4-yl)propyl]-3-oxo-1-[(3S)-oxolan-3-yloxy]-2,3-dihydro-1H-isoindol-2-yl]methyl}pyrimidine-5-carbonitrile]
[2]; read-out: SN40R2 % inhibition at 10
  inhibition at 10 µM: 37%
MDM2-p53 interaction
  inhibition at 0.001 µM: 81%
SN40R2 cells
  inhibition at 10 µM: 6%
